Where only a bound is given, the exact number is not on record here.

This assay relates to M-NFS-60 cells. The assay can be described thus: M-NFS-60 cell in vitro assay (CCK, 48 h, M-CSF factor medium). In kind it is cell-based. As to conditions: M-NFS-60 cells; read-out: M-NFS-60cellassay IC50. A digest of the protocol: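 Mouse M-NFS-60 cells (2000/well) in RPMI-1640 with 10% serum and M-CSF (25 ng/ml) were pre-incubated 4 h, then exposed to DMSO-diluted compound gradients for 48 h at 5% CO2. Viability read by CCK, 2 h, OD 450 nm; IC50 from curve fitting.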
`Cn1cc2ncc(N[C@H]3CCc4c(Nc5cc(C67CC(C6)C7)on5)cccc43)cc2n1` [Compound 91r]: the IC50 is < 50 nM.

In the case of `COc1cccc(C(=O)Nc2cccc3c2CCC3Oc2cc(-c3cnn(C)c3)cnc2N)c1` (centres unmarked) [Compound 1, N-(1-((2-amino-5-(1-methyl-1H-pyrazol-4-yl)pyridin-3-yl)oxy)-2,3-dihydro-1H-inden-4-yl)-3-methoxybenzamide], the 50% inhibitory concentration (IC50) was in the range of 50 to 200 nM.

For `COCC(C)(C)c1cc(Nc2cccc3c2CC[C@@H]3Nc2cnc3cnn(C)c3c2)no1` [Compound 91c], the IC50 was < 50 nM.

For the compound `Cn1cc2ncc(N[C@H]3CCc4c(Nc5nc(C(C)(C)C)cs5)cccc43)cc2n1` [Compound 91i], the IC50 was < 50 nM.

For the compound `Cn1cc(-c2cnc(N)c(O[C@H]3CCc4c(NC(=O)c5cccc(CN6CCCC6)c5)cccc43)c2)cn1` [Compound 3i], the IC50 was > 500 nM.

For `Cc1cccc(C(=O)Nc2cccc3c2CC[C@H]3Oc2cncc(-c3cnn(C)c3)c2)c1` [Compound 16, (R)-3-methyl-N-(1-((5-(1-methyl-1H-pyrazol-4-yl)pyridin-3-yl)oxy)-2,3-dihydro-1H-inden-4-yl)benzamide], the IC50 was > 500 nM.

On to `Cc1cccc(C(=O)Nc2cccc3c2CCC3Nc2cncc(-c3cnn(C)c3)c2)c1` (centres unmarked) [Compound 8, 3-methyl-N-(1-((5-(1-methyl-1H-pyrazol-4-yl)pyridin-3-yl)amino)-2,3-dihydro-1H-inden-4-yl)benzamide], for which the IC50 was < 50 nM.

With `Cn1cc(-c2cnc(N)c(O[C@H]3CCc4c(NC(=O)c5cccc(C6CC6)c5)cccc43)c2)cn1` [Compound 3g], the IC50 is < 50 nM.

Turning to `Cn1cc(-c2cncc(N[C@H]3CCc4c(CNc5cccc(C(F)(F)F)c5)cccc43)c2)cn1` [Compound 59c], the IC50 is > 500 nM.

`Cn1ncc2ncc(N[C@H]3CCc4c(Nc5nc(C(C)(C)C)cs5)cccc43)cc21` [Compound 91b]: the IC50 was in the range of 50 to 200 nM.

In the case of `Cn1cc(-c2cncc(N[C@H]3CCc4c(C(=O)Nc5ccc(C(F)(F)F)cc5)cccc43)c2)cn1` [Compound 14al], the IC50 was < 50 nM.

`Cn1cc2ncc(N[C@H]3CCc4c(Nc5noc(C6CC6)n5)cccc43)cc2n1` [Compound 93j]: the IC50 was 200 to 500 nM.

With `Cn1cc2ncc(N[C@H]3CCc4c(Nc5noc(C6(C(F)(F)F)CC6)n5)cccc43)cc2n1` [Compound 93g], the IC50 was < 50 nM.

With `Cc1cc(NC(=O)c2cccc3c2CC[C@@H]3N(C)c2cnc3cnn(C)c3c2)ccc1F` [Compound 80q], the IC50 was < 50 nM.

In the case of `Cn1cc(-c2cncc(N[C@H]3CCc4c(CNc5ccccc5F)cccc43)n2)cn1` [Compound 59e], the IC50 is > 500 nM.

As for `Cn1cc(-c2cnc(N)c(O[C@H]3CCc4c(NC(=O)c5cccc(C(F)(F)F)c5)cccc43)c2)cn1` [Compound 3e], the IC50 is < 50 nM.

On to `Cc1ccc(F)c(NC(=O)c2cccc3c2CC[C@@H]3Nc2cncc(-c3cnn(C)c3)c2)c1` [Compound 14ac], for which the IC50 is < 50 nM.

Take `Cc1cccc(NCc2cccc3c2CC[C@@H]3Nc2cncc(-c3cnn(C)c3)n2)c1` [Compound 59d]: the IC50 lay in the range of 200 to 500 nM.

In the case of `Cn1cc2ncc(N[C@H]3CCc4c(Nc5cc(C6(C)CCC6)on5)cccc43)cc2n1` [Compound 91k], the IC50 is < 50 nM.

Take `Cn1cc2ncc(O[C@H]3CCc4c(C(=O)Nc5cccc(C6CC6)c5F)cccc43)cc2n1` [Compound 76bb]: the IC50 was < 50 nM.

With `Cc1cccc(NC(=O)c2cccc3c2CC[C@@H]3Nc2cncc(-c3cnn(C)c3)n2)c1` [Compound 26, (S)-1-((6-(1-methyl-1H-pyrazol-4-yl)pyrazin-2-yl)amino)-N-(m-tolyl)-2,3-dihydro-1H-indene-4-carboxamide], the IC50 was < 50 nM.

In the case of `Cn1cc(-c2cc(O[C@H]3CCc4c(C(=O)Nc5ccc(C(F)(F)F)cc5)cccc43)ccn2)cn1` [Compound 56, (S)-1-((2-(1-methyl-1H-pyrazol-4-yl)pyridin-4-yl)oxy)-N-(4-(trifluoromethyl)phenyl)-2,3-dihydro-1H-indene-4-carboxamide], the IC50 was > 500 nM.

In the case of `COc1cc(NC(=O)c2cccc3c2CC[C@@H]3Nc2cncc(-c3cnn(C)c3)c2)ccc1F` [Compound 14af], the IC50 is < 50 nM.

Regarding `Cn1cc(-c2cncc(NC3CCc4c(NC(=O)c5cccc(C6CC6)c5)ccnc43)c2)cn1` (centres unmarked) [Compound 44e], the IC50 lay in the range of 200 to 500 nM.

Consider `COc1cccc(NC(=O)c2cccc3c2CC[C@@H]3Oc2cnc3cnn(C)c3c2)c1F` [Compound 76ak], for which the IC50 lay in the range of 50 to 200 nM.

Turning to `CN1CCC(NC(=O)c2cccc3c2CC[C@@H]3Nc2cncc(-c3cnn(C)c3)n2)CC1` [Compound 27h], the IC50 was > 500 nM.

Consider `CN1CCC[C@H]1c1nc(Nc2cccc3c2CC[C@@H]3Nc2cnc3cn(C)nc3c2)no1` [Compound 93c], for which the IC50 was in the range of 50 to 200 nM.

`Cc1cc(NC(=O)c2cccc3c2CC[C@@H]3Oc2cncc(-c3cnn(C)c3)c2)ccn1` [Compound 19p]: the IC50 was < 50 nM.

In the case of `Cn1cc2ncc(O[C@H]3CCc4c(C(=O)Nc5cccc(C(F)(F)F)c5F)cccc43)cc2n1` [Compound 76av], the IC50 was < 50 nM.

For the compound `Cc1cccc(C(=O)Nc2cccc3c2CC[C@@H]3Nc2cncc(Cl)n2)c1` [Compound 30, (S)—N-(1-((6-chloropyrazin-2-yl)amino)-2,3-dihydro-1H-inden-4-yl)-3-methylbenzamide], the IC50 is < 50 nM.

`CN1CCc2nc(NC(=O)c3cccc4c3CC[C@@H]4N(C)c3cnc4cn(C)nc4c3)sc2C1` [Compound 80o]: the IC50 was < 50 nM.

On to `Cc1cccc(C(=O)Nc2cccc3c2CC[C@@H]3Nc2cncc(-c3cnn(C)c3)n2)c1` [Compound 25a], for which the IC50 was < 50 nM.

With `Cn1cc(-c2cncc(N[C@H]3CCc4c(C(=O)Nc5ccc(Cl)cc5)cccc43)c2)cn1` [Compound 14an], the IC50 is < 50 nM.

`Cc1cccc(NC(=O)c2cccc3c2CC[C@@H]3N(C)c2cnc3cn(C)nc3c2)c1F` [Compound 80j]: the IC50 is < 50 nM.

In the case of `Cn1cc(-c2cc(N[C@H]3CCc4c(C(=O)Nc5cccc(C6CC6)c5)cccc43)ccn2)cn1` [Compound 57, (S)—N-(3-cyclopropylphenyl)-1-((2-(1-methyl-1H-pyrazol-4-yl)pyridin-4-yl)amino)-2,3-dihydro-1H-indene-4-carboxamide], the IC50 was > 500 nM.

On to `Cn1cc2ncc(N[C@H]3CCc4c(Nc5cc(C67CC(F)(C6)C7)on5)cccc43)cc2n1` [Compound 91s], for which the IC50 was < 50 nM.

Consider `O=C(Nc1cccc2c1CC[C@@H]2Nc1cncc(Br)c1)c1cccc(C2CC2)c1` [Compound 11, (S)—N-(1-((5-bromopyridin-3-yl)amino)-2,3-dihydro-1H-inden-4-yl)-3-cyclopropylbenzamide], for which the IC50 was in the range of 50 to 200 nM.

`Cn1ncc2ncc(N[C@H]3CCc4c(Nc5cc(C(C)(C)C)on5)cccc43)cc21` [Compound 91a]: the IC50 is < 50 nM.

Regarding `Cn1cc(-c2cncc(N[C@H]3CCc4c(NC(=O)c5ccc6c(c5)OC(F)(F)O6)cccc43)n2)cn1` [Compound 24, (S)-2,2-difluoro-N-(1-((6-(1-methyl-1H-pyrazol-4-yl)pyrazin-2-yl)amino)-2,3-dihydro-1H-inden-4-yl)benzo[d][1,3]dioxole-5-carboxamide], the IC50 was < 50 nM.

Turning to `Cn1cc(-c2cncc(N[C@H]3CCc4c(C(=O)NC5CCCCC5)cccc43)n2)cn1` [Compound 27c], the IC50 was < 50 nM.

On to `Cc1cccc(NC(=O)c2ccc(F)c3c2CC[C@@H]3Nc2cnc3cn(C)nc3c2)c1F` [Compound 84, (S)-7-fluoro-N-(2-fluoro-3-methylphenyl)-1-((2-methyl-2H-pyrazolo[4,3-b]pyridin-6-yl)amino)-2,3-dihydro-1H-indene-4-carboxamide], for which the IC50 was < 50 nM.

For the compound `Cc1cccc(C(=O)Nc2ccc(F)c3c2CCC3Nc2cncc(-c3cnn(C)c3)c2)c1` (centres unmarked) [Compound 44b], the IC50 is < 50 nM.

As for `Cn1cc(-c2cncc(N[C@H]3CCc4c(C(=O)Nc5cccc(C6CC6)c5)cccc43)c2)cn1` [Compound 14aw], the IC50 is < 50 nM.

`CC(C)c1cc(Nc2cccc3c2CC[C@@H]3Nc2cncc(Cl)c2)no1` [Compound 42b]: the IC50 fell in the range of 50 to 200 nM.

As to `Cn1cc(-c2cncc(NC3CCc4c(NC(=O)c5ccc6c(c5)OC(F)(F)O6)cccc43)c2)cn1` (centres unmarked) [Compound 9, 2,2-difluoro-N-(1-((5-(1-methyl-1H-pyrazol-4-yl)pyridin-3-yl)amino)-2,3-dihydro-1H-inden-4-yl)benzo[d][1,3]dioxole-5-carboxamide], the half-maximal inhibitory concentration (IC50) lay within 50 to 200 nM.

Consider `COc1ccc(F)c(NC(=O)c2cccc3c2CC[C@@H]3N(C)c2cnc3cn(C)nc3c2)c1` [Compound 80p], for which the IC50 was < 50 nM.

Consider `Cn1nc(Nc2cccc3c2CC[C@@H]3Nc2cncc(Cl)c2)cc1C(F)(F)F` [Compound 42d], for which the IC50 was > 500 nM.

For `CN1CCN(Cc2ccc(NC(=O)c3cccc4c3CC[C@@H]4Nc3cncc(-c4cnn(C)c4)c3)cc2)CC1` [Compound 14aj], the IC50 is 50 to 200 nM.

For the compound `Cn1cc(-c2cncc(N[C@H]3CCc4c(Nc5ccn(C(C)(C)C)n5)cccc43)n2)cn1` [Compound 38, (S)—N^4-(1-(tert-butyl)-1H-pyrazol-3-yl)-N^1-(6-(1-methyl-1H-pyrazol-4-yl)pyrazin-2-yl)-2,3-dihydro-1H-indene-1,4-diamine], the IC50 is 50 to 200 nM.

Take `Cn1cc(-c2cncc(N[C@H]3CCc4c(C(=O)Nc5nn(C)c6ccccc56)cccc43)c2)cn1` [Compound 14ag]: the IC50 was < 50 nM.

As usually defined, the IC50 is the midpoint of a concentration-inhibition curve.

Values taken from patent publication US20260125359A1, “HETEROARYL COMPOUNDS AS MULTI-TARGET PROTEIN KINASE INHIBITORS” (FUJIAN HAIXI PHARMACEUTICALS CO., LTD., priority 2023, published 2026).
